Experimental data reported in PubChem BioAssay AID2772 (The Scripps Research Institute Molecular Screening Center, 2010).
Activity calls are given as the source filed them. No rule for the calls is given here.

Target: Signal transducer and activator of transcription 1-alpha/beta (Homo sapiens) (UniProt P42224)
Experiment: STAT1 reporter inhibitors in fibroblasts, late-stage follow-up, cell-based, luminescence, NIH 3T3, dose response (AID 2772)
Settings: NIH 3T3 fibroblasts, STAT1 luciferase reporter

Sequence of Signal transducer and activator of transcription 1-alpha/beta (Homo sapiens) (P42224 whole entry, looked up): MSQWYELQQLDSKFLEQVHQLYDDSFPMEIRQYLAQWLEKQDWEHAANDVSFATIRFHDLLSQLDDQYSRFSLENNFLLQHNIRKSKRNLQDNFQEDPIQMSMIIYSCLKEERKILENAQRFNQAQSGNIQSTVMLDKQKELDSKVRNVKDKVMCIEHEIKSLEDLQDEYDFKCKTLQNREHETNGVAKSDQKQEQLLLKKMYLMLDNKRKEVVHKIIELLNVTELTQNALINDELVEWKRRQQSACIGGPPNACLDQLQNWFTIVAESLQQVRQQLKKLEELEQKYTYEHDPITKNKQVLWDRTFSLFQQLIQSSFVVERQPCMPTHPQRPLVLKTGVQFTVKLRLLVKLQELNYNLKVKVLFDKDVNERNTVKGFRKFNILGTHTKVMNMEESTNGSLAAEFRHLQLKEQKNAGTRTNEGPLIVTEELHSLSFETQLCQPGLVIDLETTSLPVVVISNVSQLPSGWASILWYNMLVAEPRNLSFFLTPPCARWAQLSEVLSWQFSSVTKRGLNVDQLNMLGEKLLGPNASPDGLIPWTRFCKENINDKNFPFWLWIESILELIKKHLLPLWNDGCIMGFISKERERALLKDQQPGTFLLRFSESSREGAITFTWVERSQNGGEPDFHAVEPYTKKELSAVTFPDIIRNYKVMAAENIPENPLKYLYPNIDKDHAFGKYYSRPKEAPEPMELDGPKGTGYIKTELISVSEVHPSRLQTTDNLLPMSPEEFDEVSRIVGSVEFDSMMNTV

| IC50 | Compound |
| --- | --- |
| > 55.7 µM (inactive) | O=C(Nc1ccc(Cl)c(C(F)(F)F)c1)C(c1ccccc1)N1CCN(S(=O)(=O)c2ccccc2)CC1 (centres undefined) |
| > 55.7 µM (inactive) | O=C(Nc1ccc(F)cc1)C(c1ccccc1)N1CCN(S(=O)(=O)c2ccccc2)CC1 (centres undefined) |
| > 55.7 µM (inactive) | O=C(c1ccc(-n2c(=S)[nH]c3ccccc3c2=O)cc1)N1CCN(C2CCCCC2)CC1 |
| inactive | CCOC(=O)N1CCN(C(=O)c2ccc(-n3c(=S)[nH]c4ccccc4c3=O)cc2)CC1 |
| > 55.7 µM (inactive) | C=C1NN(c2ccc(C(=O)N3CCC(Cc4ccccc4)CC3)cc2)C(=O)c2ccccc21 |
| > 55.7 µM (inactive) | CN(Cc1ccccc1N1CCCC1)C(=O)c1nn(-c2ccccc2)c(=O)c2ccccc12 |
| > 55.7 µM (inactive) | O=C(Nc1ccc(F)cc1)C(c1ccccc1)N1CCN(S(=O)(=O)c2ccc3ccccc3c2)CC1 (centres undefined) |
| > 55.7 µM (inactive) | O=C(OCC1CCCCC1)c1nn(-c2ccccc2)c(=O)c2ccccc12 |
| > 55.7 µM (inactive) | O=C(O)c1nn(-c2ccc(F)cc2)c(=O)c2ccccc12 |
| > 55.7 µM (inactive) | O=C(c1ccc(-n2c(=S)[nH]c3ccccc3c2=O)cc1)N1CCN(C(=O)c2ccco2)CC1 |
| > 55.7 µM (inactive) | Cc1ccc(NC(=O)C(c2ccccc2)N2CCN(S(=O)(=O)c3ccccc3)CC2)cc1 (centres undefined) |
| > 55.7 µM (inactive) | COc1ccc(N2CCN(C(=O)c3ccc(-n4c(=S)[nH]c5ccccc5c4=O)cc3)CC2)cc1 |
| > 55.7 µM (inactive) | Cc1ccc(C)c(NC(=O)C(c2ccccc2)N2CCN(S(=O)(=O)c3ccccc3C#N)CC2)c1 (centres undefined) |
| > 55.7 µM (inactive) | CC(=O)c1ccc(S(=O)(=O)N2CCN(C(C(=O)Nc3ccc(C)cc3)c3ccccc3)CC2)cc1 (centres undefined) |
| > 55.7 µM (inactive) | N#Cc1ccccc1S(=O)(=O)N1CCN(C(C(=O)Nc2ccc(F)cc2)c2ccccc2)CC1 (centres undefined) |
| > 55.7 µM (inactive) | O=C(c1ccc(-n2c(=S)[nH]c3ccccc3c2=O)cc1)N1CCN(c2ccccc2)CC1 |
| inactive | COc1cccc(NC(=O)C(c2ccccc2)N2CCN(S(=O)(=O)c3ccc(C)cc3)CC2)c1 (centres undefined) |
| > 55.7 µM (inactive) | CN1CCN(C(=O)c2ccc(-n3c(=S)[nH]c4ccccc4c3=O)cc2)CC1 |
| > 55.7 µM (inactive) | O=C(Nc1ccc(F)cc1)C(c1ccccc1)N1CCN(C(=O)c2ccccc2)CC1 (centres undefined) |
| > 55.7 µM (inactive) | NC(=O)c1ccc(S(=O)(=O)N2CCN(C(C(=O)Nc3ccc(F)cc3)c3ccccc3)CC2)cc1 (centres undefined) |
| > 55.7 µM (inactive) | O=C(c1ccc(-n2c(=S)[nH]c3ccccc3c2=O)cc1)N1CCN(c2ccc(F)cc2)CC1 |
| > 55.7 µM (inactive) | N#Cc1ccc(S(=O)(=O)N2CCN(C(C(=O)Nc3ccc(F)cc3)c3ccccc3)CC2)cc1 (centres undefined) |
| > 55.7 µM (inactive) | CCOc1ccccc1NC(=O)C(c1ccccc1)N1CCN(S(=O)(=O)c2ccc(F)c(F)c2F)CC1 (centres undefined) |
| > 55.7 µM (inactive) | Cc1ccc(C)c(S(=O)(=O)N2CCN(C(C(=O)Nc3ccc(F)cc3)c3ccccc3)CC2)c1 (centres undefined) |

The remaining lines, values behind:

| Compound | IC50 |
| --- | --- |
| COc1ccc(C)cc1NC(=O)C(c1ccccc1)N1CCN(S(=O)(=O)c2ccc(F)cc2)CC1 (centres undefined) | > 55.7 µM (inactive) |
| Cc1ccc(-n2nc(C(=O)O)c3ccccc3c2=O)cc1Cl | inactive |
| COc1cc2c(cc1OC)C(=O)N(Cc1coc(-c3ccccc3)n1)C(=CN1CCOCC1)N2 | > 55.7 µM (inactive) |
| CC(C(=O)Nc1ccccc1)N1CCN(S(=O)(=O)c2ccccc2)CC1 (centres undefined) | > 55.7 µM (inactive) |
| O=c1cc(CSc2nc3ccccc3c(=O)[nH]2)c2ccc(O)cc2o1 | inactive |
| CN(C)C(=O)c1nn(-c2ccc(F)cc2)c(=O)c2ccccc12 | > 55.7 µM (inactive) |
| CCC(C(=O)Nc1ccccc1)N1CCN(S(=O)(=O)c2ccc3c(c2)CCC3)CC1 (centres undefined) | > 55.7 µM (inactive) |
| O=c1c2ccccc2nc(CN2CCOCC2)n1Cc1nc(-c2ccc[nH]2)cs1 | inactive |
| CCOc1ccc2oc(=O)cc(CSc3nc4ccccc4c(=O)[nH]3)c2c1 | > 55.7 µM (inactive) |
| CCC(C)c1ccc(-c2csc(CN3C(=O)c4ccccc4N/C3=C\N3CCN(C)CC3)n2)cc1 (centres undefined) | > 18.6 µM (inactive) |
| CCOc1ccc(-c2csc(Cn3c(CN4CCN(C)CC4)nc4ccccc4c3=O)n2)cc1 | > 18.6 µM (inactive) |
| CCOC(=O)Nc1ccc2c(CSc3nc4ccccc4c(=O)[nH]3)cc(=O)oc2c1 | > 55.7 µM (inactive) |
| COC(=O)c1nn(-c2ccc(F)cc2)c(=O)c2ccccc12 | > 55.7 µM (inactive) |
| CN(C)Cc1nc2ccccc2c(=O)n1Cc1nc(-c2cccc([N+](=O)[O-])c2)cs1 | > 18.6 µM (inactive) |
| O=C1c2ccccc2N/C(=C\N2CCOCC2)N1Cc1nc(-c2ccccc2F)cs1 | inactive |
| CN1CCN(C=C2Nc3ccccc3C(=O)N2Cc2nc(C34CC5CC(CC(C5)C3)C4)cs2)CC1 | > 55.7 µM (inactive) |
| CN1CCN(Cc2nc3ccccc3c(=O)n2Cc2nc(-c3ccccc3F)cs2)CC1 | inactive |
| CN(C)Cc1nc2ccccc2c(=O)n1Cc1nc(C(C)(C)C)cs1 | inactive |
| COc1cc2c(cc1OC)C(=O)N(Cc1nnc(-c3ccc(Cl)cc3)o1)C(=CN1CCOCC1)N2 | > 55.7 µM (inactive) |
| COc1cc2c(cc1OC)C(=O)N(Cc1cc(-c3ccccc3OC)no1)C(=CN1CCOCC1)N2 | > 55.7 µM (inactive) |
| O=C1c2ccccc2N/C(=C\N2CCOCC2)N1Cc1nc(-c2ccc(F)c(F)c2)cs1 | inactive |
| O=C(Nc1ccc(F)cc1)C(c1ccccc1)N1CCN(S(=O)(=O)c2ccc3c(c2)OCCO3)CC1 (centres undefined) | > 55.7 µM (inactive) |
| Cc1ccc(-n2nc(C(=O)O)c3ccccc3c2=O)cc1C | > 55.7 µM (inactive) |
| CC(C(=O)Nc1ccc(F)c(F)c1)N1CCN(S(=O)(=O)c2ccc(C(F)(F)F)cc2)CC1 (centres undefined) | > 55.7 µM (inactive) |
| COc1cccc(-c2csc(Cn3c(CN4CCOCC4)nc4ccccc4c3=O)n2)c1 | inactive |
| CNC(=O)c1nn(-c2ccc(F)cc2)c(=O)c2ccccc12 | > 55.7 µM (inactive) |
| CCOC(=O)c1ccc(S(=O)(=O)N2CCN(C(C(=O)Nc3ccc(OC)c(Cl)c3)c3ccccc3)CC2)cc1 (centres undefined) | > 55.7 µM (inactive) |
| Cc1cc2oc(=O)cc(CSc3nc4ccccc4c(=O)[nH]3)c2cc1Cl | > 55.7 µM (inactive) |
| Cc1ccc2oc(=O)cc(CSc3nc(-c4ccccc4)c4ccccc4n3)c2c1 | > 55.7 µM (inactive) |
| CN1CCN(Cc2nc3ccccc3c(=O)n2Cc2nc(-c3cccc([N+](=O)[O-])c3)cs2)CC1 | inactive |
